SMILES strings stand for the structures. Marks after values point to notes of the source that are not given here.

A word on the inhibition: it is the relative decrease from the control value, in per cent.

In experiment [1] the target is T1, Human recombinant HMG-CoA reductase (Homo sapiens, UniProt P04035).
T1 sequence (P04035 426-888 limits assumed): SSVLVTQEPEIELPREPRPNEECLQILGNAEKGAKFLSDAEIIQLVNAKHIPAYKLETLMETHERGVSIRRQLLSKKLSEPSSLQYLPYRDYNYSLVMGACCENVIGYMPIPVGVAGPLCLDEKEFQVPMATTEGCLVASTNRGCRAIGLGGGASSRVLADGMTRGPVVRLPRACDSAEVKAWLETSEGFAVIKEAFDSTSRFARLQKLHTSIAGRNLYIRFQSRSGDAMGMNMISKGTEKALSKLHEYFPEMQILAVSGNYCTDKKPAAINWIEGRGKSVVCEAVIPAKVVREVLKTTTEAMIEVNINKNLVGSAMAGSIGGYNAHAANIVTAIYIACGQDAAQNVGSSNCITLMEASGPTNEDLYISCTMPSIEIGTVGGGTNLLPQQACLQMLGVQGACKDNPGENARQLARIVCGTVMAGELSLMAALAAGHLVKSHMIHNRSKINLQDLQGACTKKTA
Nature of the experiment: HMG-CoA reductase inhibition test ([14C]mevalonate formation). The experiment is classed as biochemical. The note with it: for inhibition at 30 µM / inhibition at 3 µM: duplicates; for HMG-CoA reductase inhibiting activity (in words): own investigations. The method, then:
Inhibition of HMG-CoA reductase was determined under following conditions. Human recombinant HMG-CoA reductase were pre-incubated with 35 ng/ml enzyme in reaction buffer, pH 7.5 (100 mM KH2PO4, 8 mM Glucose-6-Phosphate, 1 mM nicotinamide adenine dinucleotide phosphate, 4 mM ethylenediaminetetraacetic acid, 2 mM dithiothreitol, 0.6 Units glucose-6-phosphate dehydrogenase) for 15 minutes at 37° C. The reaction was initiated by addition of 2.5 μM [14C]HMG-CoA for another 20 minute incubation period and terminated by further addition of 1 N HCl. An aliquot was removed and then counted to determine the amount of [14C]Mevalonate formed. […] All samples were measured in duplicates.

Experiment [2] relates to hamsters fed with a high-cholesterol diet. Kind of experiment: In vivo food cholesterol reduction (hypocholesterolemic activity). More on the design: species or system golden Syrian hamsters. The following applies: oral once a day, extract 100 mg/kg, ezetimibe 1 mg/kg. The method, then: The dry extract of example 1 was evaluated for possible hypocholesterolemic activity in hamsters fed with a high-cholesterol diet. Groups of 10 male golden Syrian hamsters were induced to hypercholesterolemia by a high cholesterol diet (g/100 g: 5.0 corn oil, 5.0 coconut oil, 0.2 cholesterol and 89.8 standard diet throughout the 28-day experimental period. After the test animals had been kept on the high cholesterol diet for 7 days, vehicle (1% Cremophor EL in phosphate buffered saline) and extract of example 1 (incorporated into said vehicle) were administered orally, starting on day 1, for 28 days at 100 mg/kg, once a day, were administered orally for 28 consecutive days. Ezetimibe, the positive control, was also administered orally (at 1 mg/kg) for 28 consecutive days. Blood was drawn in overnight fasted animals on day 1 (pre-treatment), day 8, day 15, and day 29 for measurements of serum total cholesterol (Total plasma cholesterol), high density lipoprotein (HDL), low density lipoprotein (LDL) and triglyceride (TG) levels. The measurement values on day 8, day 15, […] and day 29 were transformed into percentage. One-way ANOVA and Dunnett's test were used to ascertain difference between vehicle control and treated groups.

On to `C[C@@H]1CC[C@]2(C(=O)O)CC[C@]3(C)C(=CC[C@@H]4[C@@]5(C)CC[C@@H](O)[C@](C)(CO)[C@@H]5CC[C@]43C)[C@@H]2[C@]1(C)O` [Barbinervic acid], for which the inhibition at 30 µM in experiment [1] worked out at 37%.

As for `C[C@@H]1CC[C@]2(C(=O)O)CC[C@]3(C)C(=CC[C@@H]4[C@@]5(C)C[C@@H](O)[C@@H](O)C(C)(C)[C@@H]5CC[C@]43C)[C@@H]2[C@]1(C)O` [Euscaphic acid], in experiment [1], the inhibition at 3 µM was determined as 91% and the “HMG-CoA reductase inhibiting activity (in words)” value is “strongest HMG-CoA reductase inhibiting activity”.

For `O=C1[C@H](CC[C@H](O)c2ccc(F)cc2)[C@@H](c2ccc(O)cc2)N1c1ccc(F)cc1` [Ezetimibe], the figures for the “LDL levels relative to day one” value in experiment [2] (t = day 1 (pre-treatment)), in experiment [2] (t = day 15) and in experiment [2] (t = day 29) were 100%, 22%* and 15%*, respectively. In addition, the figures for the “Total plasma cholesterol levels relative to day one (pre-treatment)” value in experiment [2] (t = day 1 (pre-treatment)), in experiment [2] (t = day 15) and in experiment [2] (t = day 29) were 100%, 61%* and 41%*, respectively.

In the case of `CC[C@H](C)C(=O)O[C@H]1C[C@@H](C)C=C2C=C[C@H](C)[C@H](CC[C@@H]3C[C@@H](O)CC(=O)O3)[C@H]21` [Lovastatin], in experiment [1], the inhibition at 3 µM came to 100% and the inhibition at 30 µM stood at 100%.

In the case of `C[C@@H]1CC[C@]2(C(=O)O)CC[C@]3(C)C(=CC[C@@H]4[C@@]5(C)CC[C@H](O)C(C)(C)[C@@H]5CC[C@]43C)[C@@H]2[C@]1(C)O` [Pomolic acid], the inhibition at 30 µM in experiment [1] was 25%.

For `O=c1c(O[C@@H]2O[C@H](CO)[C@H](O)[C@H](O)[C@H]2O)c(-c2ccc(O)c(O)c2)oc2cc(O)cc(O)c12` [Quercetin-3-O-beta-D-galactopyranoside], in experiment [1], the inhibition at 3 µM amounted to 75% and the “HMG-CoA reductase inhibiting activity (in words)” value is recorded as “very good HMG-CoA reductase inhibiting activity”.

As to `C[C@H]1[C@H](C)CC[C@]2(C(=O)O)CC[C@]3(C)C(=CC[C@@H]4[C@@]5(C)CC[C@H](O)C(C)(C)[C@@H]5CC[C@]43C)[C@H]12` [Ursolic acid], in experiment [1], the inhibition at 3 µM was 0% and the inhibition at 30 µM is 0%.

The record behind these values is US10047034B2, “Polyhydroxylated pentacyclic triterpene acids as HMG-COA reductase inhibitors” (Prairie Berry Europe GmbH, priority 2012, dated 2018).
